Test results published in article PMC8235214, “Purification, Identification, Activity Evaluation, and Stability of Antioxidant Peptides from Alcalase Hydrolysate of Antarctic Krill (Euphausia superba) Proteins” (Marine Drugs, 2021).
Like-named read-outs stand apart in the source and are kept apart here. Ends that are not written are not given here. Peptide text beside a SMILES is read from it.

Columns and labels:
[1] = Simulated GI digestion stability (pepsin then pancreatin, DPPH· scavenging read-out); type: in vitro ADME; settings: peptide 1.0 mg/mL; two-stage model, pepsin 120 min then pancreatin 60 min (0 to 180 min); mean ± SD, n = 3
Method: The influence of simulate GI digestion on the stability of ESP6, ESP7, and ESP8 was evaluated by the two-stage digestion model. In short, ESP6, ESP7, and ESP8 were separately treated with pepsin for 120 min and pancreatin for 60 min.
The DPPH· scavenging ratio (%) of ESP6, ESP7, and ESP8 at 1.0 mg/mL were measured at the set time to analyze their stability.

[2] = cited from earlier work; for Stability under thermal and pH treatments (HO· scavenging activity): high temperature (>60 °C) and strong acid and alkali conditions; for Stability under thermal and pH treatments: 25–100 °C or pH 3–11 treatments
Excerpt: The pH and thermal stability of antioxidant peptides are key properties for their applications in food and health products, and tolerance property on simulated GI digestion treatments can help to assess the rate of metabolism and timeliness of antioxidant peptides in vivo [25, 52, 68, 69].

[3] = design: method as in 6 sources, ref 36 = [36]; PMID 23411302; doi:10.1016/j.foodchem.2012.12.002; 36. Wang B. Li L. Chi C.F. Ma J.H. Luo H.Y. Xu Y.F. Purification and Characterization of a novel antioxidant peptide derived from blue mussel ( Mytilus edulis ) protein hydrolysate Food Chem. 2013 138 ||| ref 45 = [45]; doi:10.1016/j.foodres.2010.02.009; 45. You L. Zhao M. Regenstein J.M. Ren J. Purification and identification of antioxidative peptides from loach ( Misgurnus anguillicaudatus ) protein hydrolysate by consecutive chromatography and elec ||| ref 46 = [46]; PMID 22652579; doi:10.1016/j.peptides.2012.05.013; 46. Wang B. Li Z.R. Chi C.F. Zhang Q.H. Luo H.Y. Preparation and evaluation of antioxidant peptides from ethanol-soluble proteins hydrolysate of Sphyrna lewini muscle Peptides 2012 36 240 250 10.1016/ ||| ref 49 = [49]; PMID 31058809; doi:10.3390/md17050263; 49. Pan X.Y. Wang Y.M. Li L. Chi C.F. Wang B. Four antioxidant peptides from protein hydrolysate of red stingray ( Dasyatis akajei ) cartilages: Isolation, identification, and in vitro activity evalua ||| ref 22 = [22]; PMID 32164197; doi:10.3390/md18030153; 22. Hu X.M. Wang Y.M. Zhao Y.Q. Chi C.F. Wang B. Antioxidant peptides from the protein hydrolysate of monkfish ( Lophius litulon ) muscle: Purification, identification, and cytoprotective function on ||| ...; settings: cited from earlier work
[4] = cited from earlier work
Excerpt: In the organism, HO· can oxidize and damage most of the macromolecules due to its high reactivity characteristic. Therefore, looking for natural antioxidant peptides with high HO· scavenging ability is key for discovering new antioxidants. […] In addition, EC50 values of ESP6, ESP7, and ESP8 were also lower ...

[5] = cited from earlier work; remark: listed apart in the source
Excerpt: However, no significant difference was found among the EC50 values of ESP6, ESP7, and ESP8 (p > 0.05).

[6] = peptides from giant squid protein
[7] = peptides from Raja porosa cartilage
[8] = peptides from miiuy croaker swim bladders
[9] = peptides from Mytilus edulis and scales of croceine croaker
[10] = peptides from skipjack tuna heads
[11] = peptides from swim bladders of miiuy croaker
[12] = peptides from red stingray cartilages
[13] = peptides from Sphyrna lewini muscle

CC(C)C[C@H](NC(=O)[C@@H](N)CO)C(=O)N1CCC[C@H]1C(=O)N[C@@H](Cc1ccc(O)cc1)C(=O)O [ESP6, Ser-Leu-Pro-Tyr] (H-SLPY-OH)
Decrease of DPPH· scavenging ratio by simulated GI digestion [1]: 6.41 ± 0.96%

CSCC[C@H](NC(=O)[C@@H]1CCCN1C(=O)[C@@H]1CCCN1C(=O)[C@H](Cc1ccc(O)cc1)NC(=O)[C@@H](N)CCC(N)=O)C(=O)N[C@@H](CCC(N)=O)C(=O)N[C@@H](Cc1ccc(O)cc1)C(=O)O [ESP7, Gln-Tyr-Pro-Pro-Met-Gln-Tyr] (H-QYPPMQY-OH)
Decrease of DPPH· scavenging ratio by simulated GI digestion [1]: 8.36 ± 0.59%

C[C@H](NC(=O)[C@H](CCC(=O)O)NC(=O)[C@H](Cc1ccc(O)cc1)NC(=O)[C@@H](N)CCC(=O)O)C(=O)O [ESP8, Glu-Tyr-Glu-Ala] (H-EYEA-OH)
Decrease of DPPH· scavenging ratio by simulated GI digestion [1]: 6.48 ± 1.03%

ATSHH
Stability under thermal and pH treatments (DPPH· scavenging activity) ([2]; 50–90 °C and strong acids and bases): will decrease its partial DPPH· scavenging activity

EDIVCW [EDIVCW, antioxidant peptide from monkfish muscle]
EC50 on DPPH· ([3]; peptides from monkfish muscle): 0.39 mg/mL

FDSGPAGVL [FDSGPAGVL, antioxidant peptide from giant squid protein]
EC50 on HO· [4, 6]: 0.078 mg/mL

FIMGPY [FIMGPY, antioxidant peptide from Raja porosa cartilage]
EC50 on O2−· [5, 7]: 1.61 mg/mL

FPYLRH [FPYLRH, antioxidant peptide from miiuy croaker swim bladders]
EC50 on HO· [4, 8]: 0.68 ± 0.05 mg/mL | EC50 on DPPH· [3, 8]: 0.51 ± 0.03 mg/mL

GPAGDY [GPAGDY, antioxidant peptide from Raja porosa cartilage]
EC50 on O2−· [5, 7]: 1.66 mg/mL

GPAGPAG [GPAGPAG, antioxidant peptide from scales of croceine croaker]
EC50 on DPPH· [3, 9]: 0.675 mg/mL

Glu-Met-Gly-Pro-Ala [EMGPA, antioxidant peptide from skipjack tuna heads]
EC50 on O2−· [5, 10]: 0.71 mg/mL | Stability under thermal and pH treatments (HO· scavenging activity) [2]: significantly influenced

Gly-Ile-Glu-Trp-Ala [GIEWA, antioxidant peptide from miiuy croaker swim bladders]
EC50 on DPPH· [3, 8]: 0.78 ± 0.05 mg/mL

Gly-Phe-Pro-Ser-Gly [GFPSG, antioxidant peptide from scales of croceine croaker]
EC50 on DPPH· [3, 9]: 0.283 mg/mL

Gly-Phe-Tyr-Ala-Ala [GFYAA, antioxidant peptide from miiuy croaker swim bladders]
EC50 on O2−· [5, 11]: 3.03 ± 0.19 mg/mL | EC50 on HO· [4, 8]: 2.35 ± 0.22 mg/mL

IVAGPQ [IVAGPQ, antioxidant peptide from skate (Raja porosa) cartilages]
EC50 on O2−· [5, 7]: 1.82 mg/mL | EC50 on HO· ([4]; peptide from skate cartilages): 5.03 mg/mL

Ile-Glu-Glu-Glu-Gln [IEEEQ, antioxidant peptide from red stingray cartilages]
EC50 on DPPH· [3, 12]: 4.01 mg/mL

Leu-Glu-Glu-Glu-Glu [LEEEE, antioxidant peptide from red stingray cartilages]
EC50 on DPPH· [3, 12]: 3.69 mg/mL

MYPGLA
Stability under thermal and pH treatments [2]: high stability

Met-Glu-Pro-Val-Trp [MEPVW, antioxidant peptide from monkfish muscle]
EC50 on O2−· ([5]; peptide from monkfish muscle): 0.94 mg/mL | EC50 on DPPH· ([3]; peptides from monkfish muscle): 0.62 mg/mL

Met-Ile-Leu-Met-Arg [MILMR, antioxidant peptide from croceine croaker muscle]
EC50 on O2−· ([5]; peptide from croceine croaker muscle): 0.993 mg/mL

NGPLQAGQPGER [NGPLQAGQPGER, antioxidant peptide from giant squid protein]
EC50 on HO· [4, 6]: 0.123 mg/mL

Phe-Ser-Gly-Leu-Arg [FSGLR, antioxidant peptide from miiuy croaker swim bladders]
EC50 on O2−· [5, 11]: 3.35 ± 0.20 mg/mL | EC50 on HO· [4, 8]: 2.45 ± 0.25 mg/mL

Phe-Thr-Gly-Met-Asp [FTGMD, antioxidant peptide from miiuy croaker swim bladders]
EC50 on O2−· [5, 11]: 3.04 ± 0.27 mg/mL | EC50 on HO· [4, 8]: 2.31 ± 0.12 mg/mL

Pro-Ser-Tyr-Val [PSYV, antioxidant peptide from weatherfish loach]
EC50 on HO· ([4]; peptide from weatherfish loach): 2.64 mg/mL | EC50 on DPPH· ([3]; peptide from weather loach): 17.0 mg/mL

Pro-Tyr-Phe-Asn-Lys [PYFNK, antioxidant peptide from Sphyrna lewini muscle]
EC50 on O2−· [5, 13]: 0.11 mg/mL | EC50 on HO· [4, 13]: 0.24 mg/mL | EC50 on DPPH· [3, 13]: 4.11 mg/mL

Trp-Asp-Arg [WDR, antioxidant peptide from Sphyrna lewini muscle]
EC50 on O2−· [5, 13]: 0.09 mg/mL | EC50 on HO· [4, 13]: 0.15 mg/mL | EC50 on DPPH· [3, 13]: 3.63 mg/mL

Trp-Glu-Gly-Pro-Lys [WEGPK, antioxidant peptide from heads of bluefin leatherjacket]
EC50 on HO· ([4]; peptide from heads of bluefin leatherjacket): 5.567 mg/mL

Trp-Met-Gly-Pro-Tyr [WMGPY, antioxidant peptide from skipjack tuna heads]
EC50 on O2−· [5, 10]: 0.38 mg/mL | Stability under thermal and pH treatments (HO· scavenging activity) [2]: significantly influenced

Trp-Met-Phe-Asp-Trp [WMFDW, antioxidant peptide from skipjack tuna heads]
EC50 on O2−· [5, 10]: 0.56 mg/mL | Stability under thermal and pH treatments (HO· scavenging activity) [2]: significantly influenced

Tyr-Leu-Pro-Tyr-Ala [YLPYA, antioxidant peptide from swim bladders of miiuy croaker]
EC50 on O2−· [5, 11]: 3.61 ± 0.25 mg/mL

Tyr-Phe-Leu-Trp-Pro [YFLWP, antioxidant peptide from miiuy croaker muscle]
EC50 on O2−· ([5]; peptide from miiuy croaker muscle): 3.08 mg/mL

Tyr-Pro-Pro-Ala-Lys [YPPAK, antioxidant peptide from blue mussel (Mytilus edulis)]
EC50 on O2−· ([5]; peptide from blue mussel): 0.072 mg/mL | EC50 on HO· ([4]; peptide from blue mussel): 0.228 mg/mL | EC50 on DPPH· [3, 9]: 2.62 mg/mL

Tyr-Trp-Asp-Ala-Trp [YWDAW, antioxidant peptide from monkfish muscle]
EC50 on DPPH· ([3]; peptides from monkfish muscle): 0.51 mg/mL

VPDDD [antioxidant peptide from swim bladders of miiuy croaker]
EC50 on O2−· [5, 11]: 4.11 ± 0.31 mg/mL

Val-Pro-Arg [VPR]
EC50 on DPPH· [3, 12]: 4.61 mg/mL

Val-Pro-Asp-Asp [VPDD, antioxidant peptide from miiuy croaker swim bladders]
EC50 on HO· [4, 8]: 2.85 ± 0.19 mg/mL

WAFAPA
Stability under thermal and pH treatments [2]: high stability
